Laboratory results as given in US12061186B2, “Compositions and methods for using cross-dressing to enhance anti-tumor immune responses” (Massachusetts Institute of Technology, priority 2020, dated 2024).

Tested on: MC38-SIY tumor cells
Test: IFNγ-ELISpot of splenocytes from mice implanted with PRR agonist-coated tumor cells
Assay type: in vivo
Description: Tumor cell lines were cultured at 37° C. and 5% CO2 in DMEM (Gibco) supplemented with 10% FBS (Atlanta Biologicals), 1% penicillin/streptomycin (Gibco), and 1×HEPES (Gibco). Tumor cells were harvested by trypsinization (Gibco) and washed 3 times with PBS (Gibco). Cells were resuspended in PBS, and 2×10^6 tumor cells were injected subcutaneously into the flanks of mice. For experiments with pattern recognition receptor (PRR) agonist coating, 2×10^6 tumor cells were resuspended with 50 μg naked Poly(I:C) HMW (InvivoGen), DMXAA (InvivoGen), or Pam2CSK4 (InvivoGen) in PBS and injected subcutaneously into the flanks of mice. All PRR agonists were added to cells without a transfection reagent. For experiments with fixed tumor cells, the cells were fixed with 4% paraformaldehyde (Electron Microscopy Sciences) for 10 minutes at RT, washed twice and resuspended with PBS, and 2×10^6 tumor cells were injected subcutaneously into the flanks of mice. Tumor area measurements (calculated as length×width) were collected 2-3 times a week until the endpoint of the study. Data not shown but available upon request—Details on experimental cohorts, the raw data, as well as the power calculations for all tumor outgrowth experiments.
ELISpot plates (EMD Millipore) were coated overnight at 4° C. with anti-IFNγ (BD Biosciences). Plates were washed and blocked with DMEM supplemented with 10% FBS, 1% penicillin/streptomycin, and 1×HEPES for 2 hours at room temperature (RT). Spleens were harvested from mice at day 5 or day 7 post-tumor inoculation and mashed through a 70 μm filter with a 1 mL syringe plunger to generate a single cell suspension. Red blood cells were lysed with 500 μL of ACK Lysing Buffer (Gibco) on ice for 2 minutes. Splenocytes were washed 3 times with chilled PBS and 1×10^6 cells were assayed per well in the presence or absence of 160 nM SIY peptide or 100 ng/mL PMA (Sigma-Aldrich) and 1 μg/mL ionomycin (Sigma-Aldrich) as a positive control. Plates were developed the next day using the BD mouse IFNγ-ELISpot kit, following manufacturer's protocol.

polyinosinic-polycytidylic acid [Poly(I:C)]
induction of antigen-specific T cell responses (IFNγ-ELISpot) (Poly(I:C)-coated 4% PFA-fixed MC38-SIY tumor cells): failed to induce any antigen-specific T cell responses
antigen-specific T cell responses restored, as share of the priming responses observed in WT mice (IFNγ-ELISpot) (Poly(I:C)-coated MC38-SIY tumor cells implanted in Batf3−/− mice, day 7 post-tumor inoculation, 50 μg per 2×10^6 cells): 45.0%
restoration of T cell responses (IFNγ-ELISpot) (Poly(I:C)-coated MHC class I-deficient (β2M−/−) MC38-SIY tumor cells, Batf3−/− mice): no restoration
